Results taken from PMC11215778 (Journal of Medicinal Chemistry, 2024).
Like-named read-outs stand apart in the source and are kept apart here.

Legend:
[1] = Cytotoxicity assay (CellTiter-Glo) on normal human dermal fibroblasts; type: cell-based; conditions: normal human dermal fibroblasts (NHDF)
Protocol: The cytotoxicity of the compounds was evaluated in nontumor normal human dermal fibroblasts (NHDF) purchased from ATCC (PCS-201-012, Manassas, VA, USA). The cells were negatively tested for the presence of mycoplasma (cat. #: LT07-318 MycoAlert Mycoplasma Detection kit, Lonza). The cells were cultivated in DMEM high glucose 4.5 g/L medium (cat. #: R8758, Merck, Germany). The medium was supplemented with 10% fetal bovine serum (cat. #: F7524, Merck, Germany; inactivated at 56 °C for 30 min) and 1.0% of L-glutamine (cat. #: G7513, Merck, Germany) without antibiotics. Cells were seeded in 384-well format white micro plates (cat. #: 164610, Nunc, Thermo Fisher Scientific, USA) at a concentration of 60,000 cells per mL and left to rest overnight. Next day, 1 and 10 μM concentrations of the tested compounds were added in triplicates. The cells were cultivated at 37 °C and 5% CO2 for 72 h after which a luminescent cell viability assay (CellTiter-Glo 2.0, cat. #: Promega, Madison, USA) was added. The plate was left on a shaker (350 rpm) in the dark for 20 min at RT. Luminescence was measured by a Spark multimode reader from Tecan (Tecan Group Ltd., Switzerland). The signal of the compound-treated cells was related to the value of the untreated control, which was arbitrarily set to 100% viability.

[2] = Plasma stability assay, human plasma; type: in vitro ADME; conditions: pooled plasma, read-out: Plasma stability % remaining at 6 h, hum
Protocol: […] The reactions were terminated by adding 4 vol of ice-cold methanol, and the samples were then mixed vigorously, frozen at −20 °C for 1 h, and left overnight at 8 °C. After that, the samples were centrifuged, and the supernatant was analyzed by means of LC–MS/MS Sciex 6500 triple quadrupole (Sciex, Framingham, MA, USA). Zero time points were prepared by adding ice-cold methanol to the compound prior to the addition of the plasma.

[3] = Plasma stability assay, rat plasma; type: in vitro ADME
in vitro = in vitro ADME; conditions: human, Caco-2; for Papp A→B at 3 h, 5 µM: read-out: Caco-2 permeability Papp A–B
Protocol: A Transwell system consisting of two compartments separated by a monolayer of differentiated Caco-2 cells was employed for the intestinal permeability evaluation. Thanks to the ability of Caco-2 cells to become polarized, bidirectional transport (A–B and B–A) could be measured and the efflux ratio calculated.
The transepithelial bidirectional transport of tested compounds (5 μM, pH 7.4/7.4) across the Caco-2 monolayers was studied using the BD BioCoat HTS Caco-2 assay system (BD Biosciences, Bedford, MA) as described in detail elsewhere.[47] Aliquots were collected from the donor and acceptor compartment at the end of the transport period (3 h), the integrity of monolayers was verified using Lucifer Yellow dye, and the compounds were quantified using LC–MS/MS (Triple Quad 6500+, Sciex). The apparent permeability coefficient (Papp) was calculated from the following equation: Papp = (dQ/dt)/C0 × A, where dQ/dt is the rate of absorption of the drug across the cells, C0 is the donor compartment concentration at time zero, and A is the area of the monolayer. The efflux ratio was expressed as (Papp B–A)/(Papp A–B). Recovery (%) was determined as (total compound mass in donor and receiver compartments at the end of the incubation/initial compound mass in the donor compartment) × 100.

[4] = Microsomal stability, human liver microsomes; type: in vitro ADME; conditions: pooled liver microsomes, pH 7.4; human liver microsomes 0.5 mg/mL, 10 μM compound; read-out: Microsomal stability CLint, hum
Protocol: (§1) . Zero time points were prepared by adding ice-cold methanol to a mixture of the compound with cofactors prior to the addition of microsomes. […]. Intrinsic clearance (CLint) was calculated using the following formula: [drawing 1] where V = incubation volume per milligram of microsomal protein (μL/mg) and t1/2 = microsomal half-life.

[5] = Microsomal stability, rat liver microsomes; type: in vitro ADME; conditions: pH 7.4; rat liver microsomes
Protocol: as §1

[6] = 10 uM, read-out: NHDF viability at 10 uM (supplement csv)
[7] = 10 μM, untreated control = 100%, read-out: NHDF Viability 10 μM

remaining at 6 h, 5 μM ([2]; human plasma, 5 μM, 37 °C) | remaining at 6 h, 5 μM [3] | recovery at 3 h, 5 µM (in vitro) | Papp A→B at 3 h, 5 µM (in vitro; 5 μM, pH 7.4/7.4, 3 h) | Papp B→A at 3 h, 5 µM (in vitro; 5 μM, pH 7.4/7.4, 3 h, read-out: Caco-2 permeability Papp B–A) | microsomal CLint at 10 µM [4] | microsomal CLint at 10 µM [5] | remaining at 6 h, 5 μM ([2]; human) | Structure (SMILES) | viability at 72 h, 1 µM [1] | viability at 72 h, 10 µM [1, 6] | viability at 72 h, 10 µM [1, 7]
88% | 68% | – | – | – | – | – | – | O=C(OC[C@H]1CCCN1)[C@@H]1[C@H]2C[C@H]3c4[nH]c5ccccc5c4CCN3C[C@@H]2CC[C@@H]1O [Compound 4a, 17-α-Hydroxyyohimban-16-α-carboxylic acid (R)-Pyrrolidin-2-ylmethyl Ester] | 113% | 106% | 106%
91 ± 5% | 80 ± 1% | – | – | – | – | – | – | CNCCOC(=O)[C@@H]1[C@H]2C[C@H]3c4[nH]c5ccccc5c4CCN3C[C@@H]2CC[C@@H]1O [Compound 4c, 17-α-Hydroxyyohimban-16-α-carboxylic Acid 2-(Methylamino)ethyl Ester] | 104% | 91% | 91%
118 ± 3% | 134 ± 1% | – | – | – | 4 ± 1 µL/min/mg | 1 ± 1 µL/min/mg | – | O=C(OC[C@H]1CCN1)[C@@H]1[C@H]2C[C@H]3c4[nH]c5ccccc5c4CCN3C[C@@H]2CC[C@@H]1O [Compound 4g, 17-α-Hydroxyyohimban-16-α-carboxylic Acid (R)-Azetidin-2-ylmethyl Ester] | 120% | 120% | 120%
88 ± 3% | 62 ± 7% | – | – | – | 4 ± 1 µL/min/mg | 1 ± 1 µL/min/mg | – | O=C(OC[C@@H]1CCNC1)[C@@H]1[C@H]2C[C@H]3c4[nH]c5ccccc5c4CCN3C[C@@H]2CC[C@@H]1O [Compound 4i, 17-α-Hydroxyyohimban-16-α-carboxylic Acid (R)-Pyrrolidin-3-ylmethyl Ester] | 109% | 107% | 107%
92% | 76 ± 3% | – | – | – | 2 µL/min/mg | 1 ± 1 µL/min/mg | – | O=C(OC[C@H]1CCNC1)[C@@H]1[C@H]2C[C@H]3c4[nH]c5ccccc5c4CCN3C[C@@H]2CC[C@@H]1O [Compound 4j, 17-α-Hydroxyyohimban-16-α-carboxylic Acid (S)-Pyrrolidin-3-ylmethyl Ester] | 104% | 102% | 102%
95 ± 5% | 110 ± 3% | 101% | 1 ×10⁻⁶ cm/s | – | 3 ± 2 µL/min/mg | 1 ± 1 µL/min/mg | – | O=C(O[C@@H]1CCNC1)[C@@H]1[C@H]2C[C@H]3c4[nH]c5ccccc5c4CCN3C[C@@H]2CC[C@@H]1O [Compound 4k, 17-α-Hydroxyyohimban-16-α-carboxylic Acid (R)-Pyrrolidin-3-yl Ester] | 99% | 91% | 91%
100% | 80 ± 1% | 112% | 1 ×10⁻⁶ cm/s | – | – | – | – | O=C(O[C@H]1CCNC1)[C@@H]1[C@H]2C[C@H]3c4[nH]c5ccccc5c4CCN3C[C@@H]2CC[C@@H]1O [Compound 4l, 17-α-Hydroxyyohimban-16-α-carboxylic Acid (S)-Pyrrolidin-3-yl Ester] | 100% | 94% | 94%
100 ± 3% | 70 ± 2% | 101% | 1 ×10⁻⁶ cm/s | – | 3 ± 2 µL/min/mg | – | – | O=C(OC1CNC1)[C@@H]1[C@H]2C[C@H]3c4[nH]c5ccccc5c4CCN3C[C@@H]2CC[C@@H]1O [Compound 4m, 17-α-Hydroxyyohimban-16-α-carboxylic Acid Azetidin-3-yl Ester] | 77% | 77% | 77%
– | 114 ± 2% | – | – | – | – | – | 100 ± 1% | O=C(N[C@H]1CCNC1)[C@@H]1[C@H]2C[C@H]3c4[nH]c5ccccc5c4CCN3C[C@@H]2CC[C@@H]1O [Compound 5a, 17-α-Hydroxyyohimban-16-α-carboxylic Acid (S)-N-(Pyrrolidin-3-yl)amide] | 90% | 88% | 88%

More lines, now with the values behind:

Structure (SMILES) | remaining at 6 h, 5 μM ([2]; human plasma, 5 μM, 37 °C) | remaining at 6 h, 5 μM [3] | recovery at 3 h, 5 µM (in vitro) | Papp A→B at 3 h, 5 µM (in vitro; 5 μM, pH 7.4/7.4, 3 h) | Papp B→A at 3 h, 5 µM (in vitro; 5 μM, pH 7.4/7.4, 3 h, read-out: Caco-2 permeability Papp B–A) | microsomal CLint at 10 µM [4] | microsomal CLint at 10 µM [5] | remaining at 6 h, 5 μM ([2]; human) | viability at 72 h, 1 µM [1] | viability at 72 h, 10 µM [1, 6] | viability at 72 h, 10 µM [1, 7]
O=C(OC[C@@H]1CCCN1)[C@@H]1[C@H]2C[C@H]3c4[nH]c5ccccc5c4CCN3C[C@@H]2CC[C@@H]1O [Compound 4b, 17-α-Hydroxyyohimban-16-α-carboxylic acid (S)-Pyrrolidin-2-ylmethyl Ester] | – | – | – | – | – | – | – | – | 112% | 103% | 103%
O=C(OC1CCNCC1)[C@@H]1[C@H]2C[C@H]3c4[nH]c5ccccc5c4CCN3C[C@@H]2CC[C@@H]1O [Compound 4d, 17-α-Hydroxyyohimban-16-α-carboxylic Acid Piperidine-4-yl Ester] | 100 ± 1% | 87% | 101% | 1 ×10⁻⁶ cm/s | 2 ×10⁻⁶ cm/s | – | – | – | 107% | 104% | 104%
O=C(OC1CCCNC1)[C@@H]1[C@H]2C[C@H]3c4[nH]c5ccccc5c4CCN3C[C@@H]2CC[C@@H]1O (stereo partly drawn) [Compound 4e, 17-α-Hydroxyyohimban-16-α-carboxylic Acid Piperidine-3-yl Ester] | – | – | – | – | – | – | – | – | 84% | 82% | 82%
O=C(OCC1CNC1)[C@@H]1[C@H]2C[C@H]3c4[nH]c5ccccc5c4CCN3C[C@@H]2CC[C@@H]1O [Compound 4f, 17-α-Hydroxyyohimban-16-α-carboxylic Acid Azetidin-3-ylmethyl Ester] | – | – | – | – | – | – | – | – | 119% | 119% | 119%
O=C(OC[C@@H]1CCN1)[C@@H]1[C@H]2C[C@H]3c4[nH]c5ccccc5c4CCN3C[C@@H]2CC[C@@H]1O [Compound 4h, 17-α-Hydroxyyohimban-16-α-carboxylic acid (S)-Azetidin-2-ylmethyl Ester] | – | – | – | – | – | – | – | – | 116% | 118% | 118%
N[C@H]1C[C@@H](OC(=O)[C@@H]2[C@H]3C[C@H]4c5[nH]c6ccccc6c5CCN4C[C@@H]3CC[C@@H]2O)C1 [Compound 4o, 17-α-Hydroxyyohimban-16-α-carboxylic Acid cis-3-Aminocyclobutyl Ester] | 97 ± 5% | 75% | 101% | 1 ×10⁻⁶ cm/s | – | 2 ± 1 µL/min/mg | 3 µL/min/mg | – | 84% | 86% | 86%
O=C(NC1CNC1)[C@@H]1[C@H]2C[C@H]3c4[nH]c5ccccc5c4CCN3C[C@@H]2CC[C@@H]1O [Compound 5b, 17-α-Hydroxyyohimban-16-α-carboxylic Acid N-(Azetidin-3-yl)amide] | – | – | – | – | – | – | – | – | 88% | 88% | 88%
